{"source": "patent US20190125790A1", "about": "“USE OF HYPOCHLOROUS ACID AS A TOPICAL ANTIMICROBIAL” (BIIOSMART TECHNOLOGIES LLC, priority 2016, published 2019)", "key": {"[1]": {"experiment": "Biocompatibility in treated patients", "format": "in vivo, human", "conditions": "0.05% HOCl aqueous solution; over 20,000 patients treated", "excerpt": "The 0.05% HOCl concentration aqueous solution is biocompatible and found to have a high safety profile. Over 20,000 patients have been treated with the solution with zero reported cases of hypersensitivity. The solution is pH controlled for biocompatibility, formulated for use on sensitive mucous membrane areas of the body, is non-antibiotic, non-irritating, non-allergenic, non-invasive, and non-toxic. No adverse effects against cellular growth in the patient."}, "E. coli NDM-1": {"system": "E. coli NDM-1", "experiment": "Efficacy at 30 seconds (Table 2)", "format": "cell-based", "conditions": "0.01 to 0.05% aqueous solution"}, "E. coli": {"system": "E. coli", "experiment": "Efficacy at 30 seconds (Table 2)", "conditions": "0.01 to 0.05% aqueous solution"}, "[2]": {"experiment": "Controlled randomized single blind clinical trial in surgical open wounds", "format": "in vivo, human", "protocol": "The biocompatibility of the 0.046% HOCl concentration aqueous solution was tested in a three way controlled and randomized single blind clinical trial. Patients were randomized into three groups (60 patients per group). The antiseptic efficacy and biocompatibility of the test solution vs. povidone-iodine vs. chlorhexidine (Chlorhexidine Gluconate—CHG) in surgical—clean and clean contaminated—open wounds was evaluated in 180 patients admitted to the surgical facilities of Erasmo Meoz Hospital in Cucuta, Colombia."}, "S. pyogenes [3]": {"system": "S. pyogenes", "experiment": "Efficacy at 30 seconds (Table 2)", "format": "cell-based", "conditions": "0.01 to 0.05% aqueous solution"}, "Acute Oral Toxicity": {"experiment": "Acute Oral Toxicity", "conditions": "both sexes, rat, in vivo, 5000 mg/Kg, Wistar Rats, 0.05% concentration HOCl aqueous solutions, males and females, read-out: acute median lethal dose LD50", "excerpt": "(§1) Table 5. contains the results of several acute and sub-chronic toxicity tests."}, "[4]": {"experiment": "Randomized double blind placebo controlled trial as sexual cleanser", "format": "in vivo, human", "conditions": "six months", "excerpt": "The purpose of this study was to evaluate the real world use and effect of the solution in a group of 47 willing participants located in Cartagena, Colombia. These willing participants were all active sex workers, whom on a weekly basis, were actively engaged in sexual intercourse with the general public. This demographic was selected as a “high risk” group of individuals that frequently encounter many forms of sexually transmitted infections. Throughout the study, the “HOCl test” group was compared with the “placebo” group in an effort to gauge the efficacy of prevention and treatment for contact-to-contact sexually transmitted infections as well as common infections related to sex. […] The patients were required to complete extensive evaluations regarding their sexual health and lifestyles. The duration of the study was six months."}, "Staphylococcus aureus": {"system": "Staphylococcus aureus", "experiment": "Antimicrobial efficacy of HOCl skin cleanser (Table 1)", "format": "cell-based", "conditions": "0.01% HOCl; 30 seconds"}, "S. pyogenes [5]": {"system": "S. pyogenes", "experiment": "Antimicrobial efficacy of HOCl skin cleanser (Table 1)", "format": "cell-based", "conditions": "0.01% HOCl; 30 seconds"}, "Human papilloma virus": {"system": "Human papilloma virus", "experiment": "Antimicrobial efficacy of HOCl skin cleanser (Table 1)", "format": "cell-based", "conditions": "0.01% HOCl; 30 seconds"}, "Escherichia coli": {"system": "Escherichia coli", "experiment": "Antimicrobial efficacy of HOCl skin cleanser (Table 1)", "format": "cell-based", "conditions": "0.01% HOCl; 30 seconds"}, "[6]": {"experiment": "Biocompatibility and animal testing, overall", "format": "in vivo", "conditions": "0.05% hypochlorous acid solution", "excerpt": "The extensive biocompatibility and animal testing that have been performed supports the safety and efficacy of the 0.05% hypochlorous acid solution. […] Due to the safety of the solution, the hypochlorous acid solution can be used repeatedly without altering or changing the properties of the skin and mucous membranes."}, "Klebsiella oxytoca": {"system": "Klebsiella oxytoca", "experiment": "Antimicrobial efficacy of HOCl skin cleanser (Table 1)", "format": "cell-based", "conditions": "0.01% HOCl; 30 seconds"}, "host cells": {"system": "host cells", "conditions": "0.04% HOCl aqueous solution"}, "VRE": {"system": "VRE", "experiment": "Efficacy at 30 seconds (Table 2)", "format": "cell-based, vancomycin-resistant enterococci", "conditions": "0.01 to 0.05% aqueous solution"}, "Campylobacter rectus": {"system": "Campylobacter rectus", "experiment": "Antimicrobial efficacy of HOCl skin cleanser (Table 1)", "format": "cell-based", "conditions": "0.01% HOCl; 30 seconds"}, "[7]": {"system": "Herpes Simplex Virus type 2 (HSV-2)", "experiment": "Test of viral inactivation, ASTM E1052-96 viruses in suspension", "format": "cell-based", "conditions": "0.04% HOCl aqueous solution; 30 seconds"}, "Herpes simplex virus": {"system": "Herpes simplex virus", "experiment": "Antimicrobial efficacy of HOCl skin cleanser (Table 1)", "format": "cell-based", "conditions": "0.01% HOCl; 30 seconds"}, "Salmonella enteritidis": {"system": "Salmonella enteritidis", "experiment": "Antimicrobial efficacy of HOCl skin cleanser (Table 1)", "format": "cell-based", "conditions": "0.01% HOCl; 30 seconds"}, "Enterobacter cloacae": {"system": "Enterobacter cloacae", "experiment": "Antimicrobial efficacy of HOCl skin cleanser (Table 1)", "format": "cell-based", "conditions": "0.01% HOCl; 30 seconds"}, "Herpes Simplex": {"system": "Herpes Simplex", "experiment": "Efficacy at 30 seconds (Table 2)", "format": "cell-based", "conditions": "0.01 to 0.05% aqueous solution"}, "[8]": {"system": "all microorganisms tested", "experiment": "ASTM E2315 Time Kill Assay, summary of Table 3", "format": "cell-based", "conditions": "concentration of 0.046%, 30 seconds", "protocol": "Table 3. below represents the efficacy of 0.046% aqueous hypochlorous acid solution in the presence of high organic load. ASTM E2315 Time Kill Assay for Antimicrobial Agents. The study was performed in ATS labs in Minnesota recommended by the U.S. FDA's Tentative Final Monograph for OTC Healthcare Antiseptic Drug. […] Additional times were evaluated: 1 minute, 5 minutes, and 10 minutes, all with and without organic soil (Using 10% whole milk and 5% Fetal Bovine Serum). The trend in the efficiency is maintained under the same proportions."}, "[9]": {"experiment": "Acute Inhalation Toxicity", "format": "in vivo, Young Adult Wistar Rats", "excerpt": "as §1"}, "[10]": {"conditions": "HOCl (0.046%) test group, 24 patients"}}, "data": [{"molecule": "OCl", "note": "[HOCl, hypochlorous acid]", "values": [{"measurement": "reported cases of hypersensitivity", "setting": "[1]", "value": "zero"}, {"measurement": "% Reduction", "setting": "E. coli NDM-1", "value": 99.999, "unit": "%"}, {"measurement": "Log Reduction", "setting": "E. coli NDM-1", "value": ">5.47", "unit": "Log10"}, {"measurement": "Log Reduction", "setting": "E. coli", "value": ">5.87", "unit": "Log10"}, {"measurement": "infected patients", "setting": "[2]; 0.046% HOCl aqueous solution, 60 patients per group, surgical open wounds", "value": "no infected patients"}, {"measurement": "wound appearance (biocompatibility)", "setting": "[2]; human, in vivo", "value": "define edges, good color and hydrated wound beds"}, {"measurement": "% Reduction", "setting": "S. pyogenes [3]", "value": ">99.99", "unit": "%"}, {"measurement": "Log Reduction", "setting": "S. pyogenes [3]", "value": ">4.97", "unit": "Log10"}, {"measurement": "LD50", "setting": "Acute Oral Toxicity", "value": "> 5000", "unit": "mg/kg"}, {"measurement": "rashes from irritation", "setting": "[4]; [10]", "value": "two"}, {"measurement": "rashes from irritation, increase", "setting": "[4]; [10]", "value": 8.3, "unit": "%"}, {"measurement": "total infections", "setting": "[4]; [10]", "value": "three"}, {"measurement": "total infections, increase", "setting": "[4]; [10]", "value": 13.5, "unit": "%"}, {"measurement": "urinary tract infection", "setting": "[4]; [10]", "value": "one"}, {"measurement": "urinary tract infection, increase", "setting": "[4]; [10]", "value": 4.2, "unit": "%"}, {"measurement": "yeast infections", "setting": "[4]; [10]", "value": "zero"}, {"measurement": "reported contact-to-contact STIs", "setting": "[4]; HOCl (0.046%) test group, 24 patients, 85% confidence level", "value": "zero"}, {"measurement": "change of the pH of the vagina", "setting": "[4]; all 47 patients", "value": "No significant change"}, {"measurement": "% Reduction", "setting": "Staphylococcus aureus", "value": 99.999, "unit": "%"}, {"measurement": "Log Reduction", "setting": "Staphylococcus aureus", "value": ">6.1", "unit": "Log10"}, {"measurement": "% Reduction", "setting": "S. pyogenes [5]", "value": 99.99, "unit": "%"}, {"measurement": "Log Reduction", "setting": "S. pyogenes [5]", "value": ">6.12", "unit": "Log10"}, {"measurement": "% Reduction", "setting": "Human papilloma virus", "value": 99.99, "unit": "%"}, {"measurement": "Log Reduction", "setting": "Human papilloma virus", "value": ">6.0", "unit": "Log10"}, {"measurement": "% Reduction", "setting": "Escherichia coli", "value": 99.99, "unit": "%"}, {"measurement": "Log Reduction", "setting": "Escherichia coli", "value": ">6.59", "unit": "Log10"}, {"measurement": "adverse effects to the skin or mucous membranes", "setting": "[6]", "value": "without adverse effects to the skin or mucous membranes"}, {"measurement": "% Reduction", "setting": "Klebsiella oxytoca", "value": 99.99, "unit": "%"}, {"measurement": "Log Reduction", "setting": "Klebsiella oxytoca", "value": ">5.50", "unit": "Log10"}, {"measurement": "adverse effects to the host cells", "setting": "host cells", "value": "no adverse effects to the host cells"}, {"measurement": "% Reduction", "setting": "VRE", "value": 99.999, "unit": "%"}, {"measurement": "Log Reduction", "setting": "VRE", "value": ">5.51", "unit": "Log10"}, {"measurement": "% Reduction", "setting": "Campylobacter rectus", "value": 99.99, "unit": "%"}, {"measurement": "Log Reduction", "setting": "Campylobacter rectus", "value": ">5.96", "unit": "Log10"}, {"measurement": "% Reduction", "setting": "[7]", "value": 99.9999, "unit": "%"}, {"measurement": "Log Reduction", "setting": "[7]", "value": 7.53}, {"measurement": "% Reduction", "setting": "Herpes simplex virus", "value": 99.99, "unit": "%"}, {"measurement": "Log Reduction", "setting": "Herpes simplex virus", "value": ">5.8", "unit": "Log10"}, {"measurement": "% Reduction", "setting": "Salmonella enteritidis", "value": 99.999, "unit": "%"}, {"measurement": "Log Reduction", "setting": "Salmonella enteritidis", "value": ">6.4", "unit": "Log10"}, {"measurement": "% Reduction", "setting": "Enterobacter cloacae", "value": 99.99, "unit": "%"}, {"measurement": "Log Reduction", "setting": "Enterobacter cloacae", "value": ">5.76", "unit": "Log10"}, {"measurement": "% Reduction", "setting": "Herpes Simplex", "value": 99.999, "unit": "%"}, {"measurement": "Log Reduction", "setting": "Herpes Simplex", "value": ">5.35", "unit": "Log10"}, {"measurement": "efficacy", "setting": "[8]", "value": 99.999, "unit": "%"}, {"measurement": "survival after exposure to the test atmosphere", "setting": "[9]; Gravimetric Chamber concentration 2.07 mg/L of HOCl, Wistar Rats", "value": "Animals All animals survived"}, {"measurement": "LC50", "setting": "[9]; both sexes, Wistar, rat, in vivo, 2.07 mg/L, male and female rats", "value": "> 2.07", "unit": "mg/L"}]}]}
